Laboratory results taken from ChEMBL document CHEMBL4043145, “Pyridine-pyrimidine amides that prevent HGF-induced epithelial scattering by two distinct mechanisms” (Bioorg Med Chem Lett, 2017).

Tests used:
Type in all cases: functional
[1] = test system: MFE-280; test: Induction of apoptosis in human MFE280 cells assessed as late apoptotic cells at 300 nM by 7-AAD/Annexin staining-based assay (reference value: 6 to 7.4%)
[2] = test system: PC-3; test: Cell cycle arrest in human p53-null PC3 cells assessed as accumulation at S phase at 100 nM (reference value: 29.08 to 29.33%)
[3] = test system: MFE-296; test: Cell cycle arrest in human MFE296 cells assessed as accumulation at G1 phase at 300 nM (reference value: 61.05 to 64.87%)
[4] = test system: A2780; test: Cell cycle arrest in human A2780 cells assessed as accumulation at S phase at 300 nM (reference value: 21.16 to 22.81%)
[5] = test system: MFE-296; test: Cell cycle arrest in human MFE296 cells assessed as accumulation at G2/M phase at 1000 nM (reference value: 15.71 to 17.04%)
[6] = test system: MFE-280; test: Cell cycle arrest in human MFE280 cells assessed as accumulation at S phase at 1000 nM (reference value: 14.14 to 15.66%)
[7] = test system: MFE-280; test: Cell cycle arrest in human MFE280 cells assessed as accumulation at S phase at 300 nM (reference value: 14.14 to 15.66%)
[8] = test system: MFE-280; test: Induction of apoptosis in human MFE280 cells assessed as late apoptotic cells at 100 nM by 7-AAD/Annexin staining-based assay (reference value: 6 to 7.4%)
[9] = test system: MCF7; test: Cell cycle arrest in human MCF7 cells assessed as accumulation at G2/M phase at 1000 nM (reference value: 20.06 to 22.33%)
[10] = test system: T47D; test: Cell cycle arrest in human T47D cells assessed as accumulation at G2/M phase at 1000 nM (reference value: 20.58 to 28.8%)
[11] = test system: T47D; test: Cell cycle arrest in human T47D cells assessed as accumulation at G2/M phase at 100 nM (reference value: 20.58 to 28.8%)
[12] = test system: PC-3; test: Cell cycle arrest in human p53-null PC3 cells assessed as accumulation at G2/M phase at 100 nM (reference value: 18.37 to 18.96%)
[13] = test system: PC-3; test: Cell cycle arrest in human p53-null PC3 cells assessed as accumulation at S phase at 1000 nM (reference value: 29.08 to 29.33%)
[14] = test system: PC-3; test: Cell cycle arrest in human p53-null PC3 cells assessed as accumulation at S phase at 300 nM (reference value: 29.08 to 29.33%)
[15] = test system: T47D; test: Cell cycle arrest in human T47D cells assessed as accumulation at G1 phase at 1000 nM (reference value: 45.5 to 57.8%)
[16] = test system: MFE-280; test: Cell cycle arrest in human MFE280 cells assessed as accumulation at G2/M phase at 1000 nM (reference value: 16.43 to 17.9%)
[17] = test system: MCF7; test: Cell cycle arrest in human MCF7 cells assessed as accumulation at G2/M phase at 300 nM (reference value: 20.06 to 22.33%)
[18] = test system: MCF7; test: Cell cycle arrest in human MCF7 cells assessed as accumulation at G2/M phase at 100 nM (reference value: 20.06 to 22.33%)

Question: What does the source list for O=C(Nc1ccc(-c2cccc(Cl)c2)cn1)c1cncnc1?
Answer: Activity [1]: 9.5%; Activity [2]: 22.12%; Activity [3]: 13.78%; Activity [4]: 22.35%; Activity [5]: 72.12%; Activity [6]: 18.57%; Activity [7]: 21.09%; Activity [8]: 8.3%; Activity [9]: 63.38%; Activity [10]: 43.07%; Activity [11]: 19.68%; Activity [12]: 25.26%; Activity [13]: 17.78%; Activity [14]: 22.85%; Activity [15]: 31.65%; Activity [16]: 46.61%; Activity [17]: 32.59%; Activity [18]: 26.95%
